Test results as given in ChEMBL document CHEMBL1201862, “PubChem BioAssay data set” (2004).
Active and inactive are the calls of the source.

Assays:
T-cell = assay: loss of vesicle association with mouse CD8+ T cells – mouse 2C CD8+ T cells, flow cytometry, dose response (AID 485284); format: functional
INS1 = assay: INS-1E survival protection against cytokine death – cell-based, luminescence, retest, dose response (AID 449756); format: functional; conditions: Rattus norvegicus, INS1;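 note: cell death triggered by IL-1 beta plus TNF-alpha plus IFN-gamma mixture; protective hits raise ATP signal compared with cytokine alone wells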
[1] = Counterscreen for AddAB inhibitors: absorbance-based bacterial cell-based high throughput dose response assay for inhibitors of bacterial viability. [Related pubchem assays (depositor defined):AID435030, AID449728, AID449731, AID488942, AID488955, AID488956]; format: functional
Nonstructural protein 1 = Nonstructural protein 1 (Influenza A virus, UniProt Q194T2); format: functional, Influenza A virus (A/California/07/2009(H1N1))
Exodeoxyribonuclease V = Exodeoxyribonuclease V (Escherichia coli (strain K12), UniProt P04993+P07648+P08394); assay: RecBCD inhibition via phage-restricted bacterial growth – absorbance, V66 E. coli, mutant T4 phage, counter-screen for AddAB inhibitor project, dose response (AID 492957); format: functional, cell-based, Escherichia coli str. K-12 substr. MG1655
[2] = HEK-293T viability loss after treatment – luminescence, T-cell screen hits, cytotoxicity control for TCR NF-kB inhibitor project, dose response (AID 489026); format: functional, cell-based;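 note: cells exposed to compound about 14 hours before the viability readout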
[3] = viability loss in THP-1 monocytes – THP-1 cells, cytotoxicity control for Vif-APOBEC3G degradation inhibitor project, dose response (AID 1117359); format: functional; conditions: THP-1
Cannabinoid receptor 2 [4] = target: T1, Cannabinoid receptor 2 (Homo sapiens, UniProt P34972); assay: SAR analysis of antagonists of the Cannabinoid Receptor 2 using an Image-Based Assay - Set 3. [Related pubchem assays (depositor defined):AID2013, AID2026]; format: functional
[5] = target: T2, G-protein coupled receptor 35 (Homo sapiens, UniProt Q9HC97); assay: SAR analysis of Agonists of the GPR35 Receptor using an Image-Based Assay - Set 4. [Related pubchem assays (depositor defined):AID2013, AID2026]; format: functional
[6] = target: T3, G-protein coupled receptor 55 (Homo sapiens, UniProt Q9Y2T6); assay: SAR Analysis of Selective Antagonists of GPR55 using an Image-Based Assay - Set 4. [Related pubchem assays (depositor defined):AID2013, AID2026]; format: functional
[7] = target: T2, G-protein coupled receptor 35; assay: SAR analysis of Antagonists of the GPR35 Receptor using an Image-Based Assay - Set 6. [Related pubchem assays (depositor defined):AID2013, AID2026]; format: functional
Cannabinoid receptor 1 [8] = target: T4, Cannabinoid receptor 1 (Homo sapiens, UniProt P21554); assay: SAR analysis of antagonists of the Cannabinoid Receptor 1 using an Image-Based Assay - Set 4. [Related pubchem assays (depositor defined):AID2013, AID2026]; format: functional
Cannabinoid receptor 2 [9] = target: T1, Cannabinoid receptor 2; assay: SAR analysis of agonists of the Cannabinoid Receptor 2 using an Image-Based Assay - Set 3. [Related pubchem assays (depositor defined):AID2013, AID2026]; format: functional
Cannabinoid receptor 1 [10] = target: T4, Cannabinoid receptor 1; assay: SAR analysis of agonists of the Cannabinoid Receptor 1 using an Image-Based Assay - Set 4. [Related pubchem assays (depositor defined):AID2013, AID2026]; format: functional
[11] = target: T5, Sentrin-specific protease 1 (Homo sapiens, UniProt Q9P0U3); assay: SENP1 catalytic domain blockers, concentration series – biochemical, kinetic FRET, dose response (AID 651697); format: functional; conditions: read-out: IC50_Mean
T5 sequence (Q9P0U3 whole entry): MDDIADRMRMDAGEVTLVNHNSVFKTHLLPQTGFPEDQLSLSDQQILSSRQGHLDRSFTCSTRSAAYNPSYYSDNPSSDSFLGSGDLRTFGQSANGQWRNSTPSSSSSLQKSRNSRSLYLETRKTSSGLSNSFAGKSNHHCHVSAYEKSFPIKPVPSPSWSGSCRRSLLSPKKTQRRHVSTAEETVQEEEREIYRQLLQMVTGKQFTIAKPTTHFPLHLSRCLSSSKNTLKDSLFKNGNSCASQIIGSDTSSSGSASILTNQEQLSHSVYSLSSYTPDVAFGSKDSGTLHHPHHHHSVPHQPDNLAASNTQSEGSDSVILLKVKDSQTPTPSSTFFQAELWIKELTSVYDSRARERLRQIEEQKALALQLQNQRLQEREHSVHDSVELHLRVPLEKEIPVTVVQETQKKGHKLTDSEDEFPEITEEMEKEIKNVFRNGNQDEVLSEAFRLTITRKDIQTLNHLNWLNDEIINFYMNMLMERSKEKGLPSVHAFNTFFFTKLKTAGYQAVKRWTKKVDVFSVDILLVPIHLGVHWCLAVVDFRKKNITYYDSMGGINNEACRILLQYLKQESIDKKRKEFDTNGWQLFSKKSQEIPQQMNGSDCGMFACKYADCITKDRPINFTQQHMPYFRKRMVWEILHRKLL

[12] = target: T5, Sentrin-specific protease 1; assay: Dose response confirmation of small molecule inhibitors of the catalytic domain of the SUMO protease, SENP1 in a FRET assay.; format: functional; conditions: read-out: IC50_Mean
[13] = target: Peroxisome proliferator-activated receptor gamma (Homo sapiens, UniProt P37231); assay: PPARg transcriptional activation, reporter cells – cell-based, luminescence, assay provider, dose response (AID 504447); format: functional
[14] = target: T6, Alkaline phosphatase, tissue-nonspecific isozyme (Homo sapiens, UniProt P05186); assay: activation of tissue-nonspecific alkaline phosphatase – biochemical, TNAP isozyme, mouse IAP uHTS hits, selectivity assay for mouse IAP activator project, dose response (AID 488880); format: functional
T6 sequence (P05186 whole entry): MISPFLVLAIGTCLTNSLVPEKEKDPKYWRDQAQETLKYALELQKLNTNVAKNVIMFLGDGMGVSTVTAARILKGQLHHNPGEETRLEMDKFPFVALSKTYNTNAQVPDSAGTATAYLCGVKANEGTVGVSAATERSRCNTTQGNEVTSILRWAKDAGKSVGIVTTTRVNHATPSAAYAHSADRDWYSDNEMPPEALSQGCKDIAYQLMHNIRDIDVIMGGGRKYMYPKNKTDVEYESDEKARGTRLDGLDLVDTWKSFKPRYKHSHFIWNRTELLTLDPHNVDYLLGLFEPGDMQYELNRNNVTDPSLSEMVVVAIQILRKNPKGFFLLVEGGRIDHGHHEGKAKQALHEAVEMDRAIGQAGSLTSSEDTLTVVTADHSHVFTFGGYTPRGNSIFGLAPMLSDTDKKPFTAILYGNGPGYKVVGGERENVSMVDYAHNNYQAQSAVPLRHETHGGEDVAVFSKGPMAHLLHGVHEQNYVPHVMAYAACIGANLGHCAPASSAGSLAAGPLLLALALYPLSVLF

[15] = target: Intestinal-type alkaline phosphatase (Homo sapiens, UniProt P09923); assay: activation of human intestinal alkaline phosphatase – biochemical, dose response (AID 488873); format: functional
[16] = target: Intestinal-type alkaline phosphatase (Mus musculus, UniProt P24822); assay: mouse intestinal alkaline phosphatase activators, dose response, biochemical, luminescence, uHTS hits (AID 488783); format: functional
[17] = target: Delta-type opioid receptor (Homo sapiens, UniProt P41143); assay: SAR Analysis of Antagonists of the DOR Receptor using an Image-Based Assay - Set 3. [Related pubchem assays (depositor defined):AID1777, AID1785]; format: functional;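 note: U2OS cells expressing DOR1 and beta-arrestin GFP stimulated with 100 nM SNC80; imaging of GFP-tagged beta-arrestin moving into spots after receptor activation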
Mu-type opioid receptor = Mu-type opioid receptor (Homo sapiens, UniProt P35372); assay: SAR Analysis of Antagonists of the MOR Receptor using an Image-Based Assay - Set 3. [Related pubchem assays (depositor defined):AID1777, AID1785, AID1786, AID1966, AID2133, AID2136, AID2284, AID2285, AID2420]; format: functional
[18] = target: T7, Kappa-type opioid receptor (Homo sapiens, UniProt P41145); assay: SAR analysis of Antagonists of the Kappa Opioid Receptor (KOR) using an Image-Based Assay - Set 4. [Related pubchem assays (depositor defined):AID1777, AID1785]; format: functional
[19] = target: T7, Kappa-type opioid receptor; assay: SAR analysis of small molecule antagonists of the kappa opioid receptor via a luminescent beta-arrestin assay - Set 3. [Related pubchem assays (depositor defined):AID1777, AID1778, AID1785, AID1786, AID1966, AID2133, AID2136, AID2285, AID2495]; format: functional
[20] = target: Eukaryotic translation initiation factor 4E (Mus musculus, UniProt P63073); assay: blockers of eIF4G binding by eIF4E – biochemical, TR-FRET, dose response (AID 855); format: functional;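 note: potency for disrupting eIF4E binding to eIF4GI seen as loss of FRET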
[21] = loss of viability in HepG2 cells – cell-based, CellTiter-Glo, cherry-picked, cytotoxicity control for Shn3 inhibitor project, dose response (AID 624134); format: functional
[22] = non-specific 3'UTR reporter inhibition in Clone20-Shn3RL – cell-based, Renilla luciferase, cherry-picked, counter-screen for Shn3 inhibitor project, dose response (AID 624133); format: functional
[23] = target: Glucose-6-phosphate 1-dehydrogenase (Homo sapiens, UniProt P11413); assay: inhibition of Homo sapiens G6PD, dose series – biochemical, fluorescence, selectivity assay for P. falciparum G6PD inhibitor project, dose response (AID 504792); format: functional
[24] = target: Peroxisome proliferator-activated receptor gamma/Nuclear receptor coactivator 2 (Homo sapiens, UniProt P37231); assay: (§1) TR-FRET dose response biochemical High Throughput Screening assay for agonists of the steroid receptor coactivator 2 (SRC-2) recruitment by the peroxisome proliferator-activated receptor gamma (PPAR gamma): non-selective agonists. [Related pubchem assays: 1297, 1032 ]; format: functional
[25] = target: Heat shock protein HSP 90-alpha (Homo sapiens, UniProt P07900); format: functional, organism-based
[26] = target: T3, G-protein coupled receptor 55; assay: inhibition of LPI-stimulated GPR55 beta-arrestin translocation – imaging, U2OS, beta-arrestin-GFP, LPI agonist, primary screen (AID 2013); format: functional;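 note: antagonist potency measured as reduced agonist-driven arrestin aggregation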
[27] = target: Peroxisome proliferator-activated receptor gamma/Nuclear receptor coactivator 1 (Homo sapiens, UniProt P37231); assay: as §1, with “1 (SRC-1)” for “2 (SRC-2)”, “assays (depositor defined):AID1300, AID1808, AID504735, AID631]” for “assays: 1297, 1032 ]”; format: protein assay
[28] = target: Peroxisome proliferator-activated receptor gamma/Nuclear receptor coactivator 3 (Homo sapiens, UniProt P37231); assay: as §1, with “3 (SRC-3)” for “2 (SRC-2)”, “1301 (Confirmation screen.), 1048 (Primary screen.)]” for “1297, 1032 ]”; format: functional
[29] = Luminescence-based dose response cell-based high throughput screening assay for cytotoxic compounds using the IEC-6 intestinal epithelial cell line. [Related pubchem assays: 1858 (Summary AID.), 1825 (Counterscreen.), 1907 (Confirmation screen.)]; format: functional
[30] = reduction of Shn3 3'UTR-driven luciferase in osteoblasts – cell-based, Clone20 osteoblasts, firefly luciferase, cherry-picked, dose response (AID 624132); format: functional;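 note: firefly luciferase luminescence from reporter carrying the Shn3 3'UTR in osteoblasts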
[31] = target: Induced myeloid leukemia cell differentiation protein Mcl-1 (Homo sapiens, UniProt Q07820); format: functional
Induced myeloid leukemia cell differentiation protein Mcl-1, sequence (Q07820 whole entry): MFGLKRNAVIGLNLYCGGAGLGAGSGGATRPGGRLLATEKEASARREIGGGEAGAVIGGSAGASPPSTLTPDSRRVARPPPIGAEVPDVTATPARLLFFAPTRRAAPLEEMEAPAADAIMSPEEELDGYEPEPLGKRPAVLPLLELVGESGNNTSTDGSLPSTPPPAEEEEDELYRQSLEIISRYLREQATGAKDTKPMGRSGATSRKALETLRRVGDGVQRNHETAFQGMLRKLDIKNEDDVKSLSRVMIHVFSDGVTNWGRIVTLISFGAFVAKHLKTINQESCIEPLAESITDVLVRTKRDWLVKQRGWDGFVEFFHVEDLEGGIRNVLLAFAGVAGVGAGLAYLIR

T4 sequence (P21554 whole entry): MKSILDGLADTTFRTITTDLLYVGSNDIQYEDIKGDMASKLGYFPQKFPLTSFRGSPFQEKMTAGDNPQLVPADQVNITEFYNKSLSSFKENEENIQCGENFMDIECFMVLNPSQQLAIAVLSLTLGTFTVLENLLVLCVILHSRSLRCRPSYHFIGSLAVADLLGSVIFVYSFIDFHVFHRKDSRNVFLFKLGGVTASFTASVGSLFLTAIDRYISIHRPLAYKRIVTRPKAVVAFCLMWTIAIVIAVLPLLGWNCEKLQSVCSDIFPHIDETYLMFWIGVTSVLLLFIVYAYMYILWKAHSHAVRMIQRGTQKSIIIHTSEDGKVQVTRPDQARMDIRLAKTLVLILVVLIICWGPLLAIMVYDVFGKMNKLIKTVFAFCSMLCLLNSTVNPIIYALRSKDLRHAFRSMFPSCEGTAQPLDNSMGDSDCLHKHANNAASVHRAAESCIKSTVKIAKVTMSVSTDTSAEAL
Nonstructural protein 1, sequence (Q194T2 whole entry): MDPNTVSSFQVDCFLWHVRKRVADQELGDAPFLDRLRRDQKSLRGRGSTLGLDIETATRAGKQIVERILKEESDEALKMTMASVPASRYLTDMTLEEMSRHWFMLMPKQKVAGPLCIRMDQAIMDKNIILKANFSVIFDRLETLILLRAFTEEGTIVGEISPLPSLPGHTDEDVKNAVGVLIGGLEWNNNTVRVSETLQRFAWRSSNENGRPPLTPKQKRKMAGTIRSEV
T7 sequence (P41145 whole entry): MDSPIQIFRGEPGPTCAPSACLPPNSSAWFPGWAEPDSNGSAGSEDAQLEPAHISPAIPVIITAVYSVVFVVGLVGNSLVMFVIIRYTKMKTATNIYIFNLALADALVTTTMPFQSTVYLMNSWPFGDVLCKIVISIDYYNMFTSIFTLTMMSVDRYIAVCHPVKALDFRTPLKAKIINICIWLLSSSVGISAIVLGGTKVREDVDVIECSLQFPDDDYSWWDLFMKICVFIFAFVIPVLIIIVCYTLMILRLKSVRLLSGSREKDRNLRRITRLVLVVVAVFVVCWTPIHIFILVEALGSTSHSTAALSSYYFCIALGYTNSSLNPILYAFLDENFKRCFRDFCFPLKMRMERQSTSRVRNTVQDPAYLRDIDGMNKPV
T1 sequence (P34972 whole entry): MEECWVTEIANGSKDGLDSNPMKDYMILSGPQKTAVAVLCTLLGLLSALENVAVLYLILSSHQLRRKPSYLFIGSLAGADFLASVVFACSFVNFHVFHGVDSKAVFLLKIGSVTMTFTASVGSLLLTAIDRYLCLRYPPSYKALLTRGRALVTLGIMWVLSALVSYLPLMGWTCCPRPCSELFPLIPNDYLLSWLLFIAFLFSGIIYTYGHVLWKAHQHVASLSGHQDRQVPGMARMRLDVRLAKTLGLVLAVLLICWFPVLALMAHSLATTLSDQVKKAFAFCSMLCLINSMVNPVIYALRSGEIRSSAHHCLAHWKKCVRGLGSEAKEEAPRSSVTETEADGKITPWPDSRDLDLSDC
T3 sequence (Q9Y2T6 whole entry): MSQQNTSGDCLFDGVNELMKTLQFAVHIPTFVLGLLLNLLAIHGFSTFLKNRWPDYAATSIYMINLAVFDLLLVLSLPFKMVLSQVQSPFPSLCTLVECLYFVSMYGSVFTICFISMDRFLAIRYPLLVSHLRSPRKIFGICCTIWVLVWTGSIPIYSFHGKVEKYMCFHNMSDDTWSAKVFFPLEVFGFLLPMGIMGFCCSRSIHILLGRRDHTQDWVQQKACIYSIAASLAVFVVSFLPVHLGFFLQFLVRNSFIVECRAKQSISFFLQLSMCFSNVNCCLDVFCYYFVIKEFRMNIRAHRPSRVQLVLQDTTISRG
T2 sequence (Q9HC97 whole entry): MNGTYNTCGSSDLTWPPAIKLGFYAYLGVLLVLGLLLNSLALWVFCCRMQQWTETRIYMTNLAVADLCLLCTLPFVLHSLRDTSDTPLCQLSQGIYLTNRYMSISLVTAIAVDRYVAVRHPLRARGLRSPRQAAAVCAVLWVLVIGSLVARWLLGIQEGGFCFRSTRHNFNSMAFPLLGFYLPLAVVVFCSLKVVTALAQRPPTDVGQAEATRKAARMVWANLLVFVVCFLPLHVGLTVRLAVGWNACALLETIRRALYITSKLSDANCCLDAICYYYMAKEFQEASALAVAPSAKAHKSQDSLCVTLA
Glucose-6-phosphate 1-dehydrogenase, sequence (P11413 whole entry): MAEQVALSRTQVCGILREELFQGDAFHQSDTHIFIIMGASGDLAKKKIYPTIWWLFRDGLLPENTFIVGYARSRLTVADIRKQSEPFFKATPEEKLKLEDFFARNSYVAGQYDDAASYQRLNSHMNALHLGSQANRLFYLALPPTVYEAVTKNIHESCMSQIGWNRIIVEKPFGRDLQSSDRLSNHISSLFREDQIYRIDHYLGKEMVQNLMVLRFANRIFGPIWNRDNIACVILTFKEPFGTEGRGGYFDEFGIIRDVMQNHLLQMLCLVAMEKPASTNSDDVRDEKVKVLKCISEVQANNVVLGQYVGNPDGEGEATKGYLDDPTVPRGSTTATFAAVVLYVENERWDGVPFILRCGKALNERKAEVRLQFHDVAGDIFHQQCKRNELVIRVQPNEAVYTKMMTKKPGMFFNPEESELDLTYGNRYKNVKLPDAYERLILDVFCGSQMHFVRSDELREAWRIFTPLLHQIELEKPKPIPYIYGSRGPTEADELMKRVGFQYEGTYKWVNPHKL
Peroxisome proliferator-activated receptor gamma/Nuclear receptor coactivator 3, sequence (P37231 whole entry): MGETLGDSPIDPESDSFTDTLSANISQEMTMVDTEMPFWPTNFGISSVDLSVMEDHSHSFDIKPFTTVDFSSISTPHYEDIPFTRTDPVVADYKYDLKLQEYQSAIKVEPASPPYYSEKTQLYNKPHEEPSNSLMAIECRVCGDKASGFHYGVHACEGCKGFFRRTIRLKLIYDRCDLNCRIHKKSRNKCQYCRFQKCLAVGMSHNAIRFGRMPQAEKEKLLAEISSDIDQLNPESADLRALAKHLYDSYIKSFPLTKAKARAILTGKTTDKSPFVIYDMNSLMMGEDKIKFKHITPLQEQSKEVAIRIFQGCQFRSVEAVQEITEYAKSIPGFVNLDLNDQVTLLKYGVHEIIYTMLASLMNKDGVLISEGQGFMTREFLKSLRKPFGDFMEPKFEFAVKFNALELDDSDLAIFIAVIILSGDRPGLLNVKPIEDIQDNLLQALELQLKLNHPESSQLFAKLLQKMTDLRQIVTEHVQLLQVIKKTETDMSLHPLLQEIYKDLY
Peroxisome proliferator-activated receptor gamma/Nuclear receptor coactivator 3, sequence (Q9Y6Q9 whole entry, further chain): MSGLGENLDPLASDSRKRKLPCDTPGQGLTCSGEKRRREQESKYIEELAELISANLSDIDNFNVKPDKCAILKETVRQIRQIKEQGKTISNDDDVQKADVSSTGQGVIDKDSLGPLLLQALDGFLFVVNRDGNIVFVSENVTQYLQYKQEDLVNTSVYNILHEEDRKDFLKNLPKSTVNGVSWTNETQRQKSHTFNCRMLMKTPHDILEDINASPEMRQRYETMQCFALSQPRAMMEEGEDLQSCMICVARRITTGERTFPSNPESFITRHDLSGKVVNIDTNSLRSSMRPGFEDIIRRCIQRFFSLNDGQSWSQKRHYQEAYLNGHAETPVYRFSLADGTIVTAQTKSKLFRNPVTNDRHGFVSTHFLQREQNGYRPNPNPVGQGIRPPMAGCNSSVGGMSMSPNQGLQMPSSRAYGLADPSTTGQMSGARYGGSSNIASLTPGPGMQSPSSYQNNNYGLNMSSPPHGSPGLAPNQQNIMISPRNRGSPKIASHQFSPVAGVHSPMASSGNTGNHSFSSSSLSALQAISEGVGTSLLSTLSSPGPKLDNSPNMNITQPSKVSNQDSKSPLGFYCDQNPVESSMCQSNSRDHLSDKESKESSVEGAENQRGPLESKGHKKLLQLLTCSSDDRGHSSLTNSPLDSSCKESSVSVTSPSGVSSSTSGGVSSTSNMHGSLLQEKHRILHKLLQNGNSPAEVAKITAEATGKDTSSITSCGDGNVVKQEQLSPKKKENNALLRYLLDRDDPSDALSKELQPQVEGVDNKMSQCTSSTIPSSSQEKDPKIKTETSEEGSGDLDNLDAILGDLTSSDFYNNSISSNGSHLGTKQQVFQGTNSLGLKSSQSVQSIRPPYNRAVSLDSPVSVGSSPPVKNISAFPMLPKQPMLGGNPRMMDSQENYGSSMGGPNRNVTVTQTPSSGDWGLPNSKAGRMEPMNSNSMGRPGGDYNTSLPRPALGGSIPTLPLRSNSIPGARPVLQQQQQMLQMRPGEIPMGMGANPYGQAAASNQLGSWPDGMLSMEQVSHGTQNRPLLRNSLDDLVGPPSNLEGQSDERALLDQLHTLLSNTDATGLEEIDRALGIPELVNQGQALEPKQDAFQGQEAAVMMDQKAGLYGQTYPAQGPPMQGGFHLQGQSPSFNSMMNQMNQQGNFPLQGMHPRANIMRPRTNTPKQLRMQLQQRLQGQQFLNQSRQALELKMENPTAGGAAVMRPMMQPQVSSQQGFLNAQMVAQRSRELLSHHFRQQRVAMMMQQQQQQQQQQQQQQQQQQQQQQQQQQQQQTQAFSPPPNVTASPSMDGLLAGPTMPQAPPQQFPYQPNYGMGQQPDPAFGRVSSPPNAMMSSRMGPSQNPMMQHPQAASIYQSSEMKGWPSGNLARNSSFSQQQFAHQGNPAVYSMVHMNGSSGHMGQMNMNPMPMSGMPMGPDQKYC

SMILES: O=C(OCCOc1cccc(Cl)c1)c1ccc(F)c(S(=O)(=O)N2CCOCC2)c1
- EC50 (T-cell): 12.4 µM (active)

SMILES: Nc1c(Cl)ncnc1N/N=C/c1ccc2ccccc2n1
- AC50 (INS1): 0.825 µM (active)
- IC50 [1]: > 119 µM (inactive)
- IC50 (Nonstructural protein 1): 8.42 µM (active)
- IC50 (Exodeoxyribonuclease V): > 119 µM (inactive)

SMILES: CC1CC(C)CN(S(=O)(=O)c2ccc(NC(=O)c3ccc(O)nc3)cc2)C1 (configuration not stated)
- IC50 [2]: > 80 µM (inactive)
- CC50 [3]: 19.7 µM (active)

SMILES: COc1ccc(-c2c(-c3ccc(OCCN4CCOCC4)cc3O)n[nH]c2C)cc1
- IC50 (Cannabinoid receptor 2 [4]): 26.8 µM (inactive)
- EC50 [5]: > 32 µM (inactive)
- IC50 [6]: > 32 µM (inactive)
- IC50 [7]: > 32 µM (inactive)
- IC50 (Cannabinoid receptor 1 [8]): 3.78 µM (active)
- EC50 (Cannabinoid receptor 2 [9]): > 32 µM (inactive)
- EC50 (Cannabinoid receptor 1 [10]): > 32 µM (inactive)

SMILES: COc1ccccc1-n1cc(C(=O)c2cc(Cl)ccc2O)cc(C#N)c1=O
- IC50 [11]: 40.9 µM (inactive)
- IC50 [12]: 25.5 µM (inactive)
- EC50 [13]: 2.4 µM (active)

SMILES: Cc1ccc(NC(=O)CN(C)S(=O)(=O)c2ccc3[nH]c(=O)oc3c2)c(C)c1
- EC50 [14]: 73.1 µM (active)
- EC50 [15]: 61.3 µM (active)
- EC50 [16]: 57.9 µM (active)

SMILES: O=C(NCCN(Cc1ccccc1)Cc1ccccc1)c1ccc(CNS(=O)(=O)c2ccccc2)cc1
- IC50 [17]: > 32 µM (inactive)
- IC50 (Mu-type opioid receptor): > 32 µM (inactive)
- IC50 [18]: > 32 µM (inactive)
- IC50 [19]: > 20 µM (inactive)

SMILES: CN(C)c1ccc(/C=C/c2ccc3c4ccccc4ccc3[n+]2-c2ccccc2)cc1
- IC50 [20]: 50 µM (inactive)
- AC50 [21]: 2.21 µM (active)
- AC50 [22]: 4.32 µM (active)
- IC50 [23]: > 80 µM (inactive)
- EC50 [24]: 17 µM (not active)
- AC50 [25]: 3.19 µM (active)
- IC50 [26]: 0.699 µM (active)
- IC50 (Nonstructural protein 1): 2.36 µM (active)
- EC50 [27]: 19.2 µM (inactive)
- EC50 [28]: 85.7 µM (not active)
- IC50 [29]: 2.41 µM (active)
- AC50 [30]: < 0.26 µM (active)
- IC50 [31]: 4.64 µM (not active)
